Measured values reported in patent US5684003A, “5-HT4 receptor agonists” (Nisshin Flour Milling Co., Ltd., priority 1994, dated 1997).
Like-named read-outs stand apart in the source and are kept apart here.

Tests used:
[1] = tested on: gastric motility; test: Gastric motility after meal in beagle dogs (force transducer, Motility Index); type: in vivo, dog (beagle); conditions: 60 min after feeding, percentage to MI at 15 minutes before administration
Description: The present compounds were investigated for the gastrointestinal motility activity by the following procedure, by which the gastrointestinal prokinetic action was confirmed.
Beagle dogs inserted with a forced transducer at the anterior wall of stomach were used after a convelescence period of more than one month.
Dogs fasted overnight were given a food (375 g of a dog food) and gastric motility after meal was determined. After 60 minutes of the feeding, the test compounds were intravenously injected and the promoting action on gastric motility after meal was determined. The area under contracting wave forms of gastric motility (Motility Index: MI) was calculated and expressed in terms of percentage to the MI at 15 minutes before the administration of the test compound.

[2] = Two-week repeated oral toxicological investigation in rats; type: in vivo, rat; conditions: rats (male, female), 2 weeks, dose figure missing ("a dose of mg/kg")
Description: (§1) The compound of Example 5 was repeatedly administered orally to rats (male, female) over the period of 2 weeks to perform a toxicological investigation.

[3] = Chromosomal aberration test
[4] = target: T1, 5-HT3 receptor (Rattus norvegicus, UniProt P35563); test: 5-HT3 receptor antagonist activity: inhibition of 2-Me-5-HT-induced reduction in heart rate in anesthetized rats; type: in vivo; conditions: iv (jugular vein) 5 minutes before 2-Me-5-HT 0.1 mg/kg, read-out: IC50 (the source's name)
T1 construct: from tissue; host or cells: whole anesthetized rat (in vivo); endogenous receptor
T1 sequence (P35563 24-483): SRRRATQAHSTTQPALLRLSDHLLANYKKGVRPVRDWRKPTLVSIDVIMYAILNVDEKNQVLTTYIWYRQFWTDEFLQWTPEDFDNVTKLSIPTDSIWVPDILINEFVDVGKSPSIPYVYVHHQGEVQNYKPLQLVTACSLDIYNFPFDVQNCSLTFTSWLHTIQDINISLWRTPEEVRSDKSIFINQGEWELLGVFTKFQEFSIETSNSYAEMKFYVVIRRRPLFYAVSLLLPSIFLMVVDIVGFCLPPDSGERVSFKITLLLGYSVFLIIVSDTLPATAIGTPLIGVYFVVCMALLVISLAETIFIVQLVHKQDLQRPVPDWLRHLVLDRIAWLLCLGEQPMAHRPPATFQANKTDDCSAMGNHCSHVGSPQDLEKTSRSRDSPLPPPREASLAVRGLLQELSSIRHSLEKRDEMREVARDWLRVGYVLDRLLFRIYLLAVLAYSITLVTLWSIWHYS
Description: For the purpose of studying a receptor selectivity of the present compounds, the 5-HT3 receptor antagonist activity was tested in the following manner. Rats were anesthetized with urethane and heart rate was recorded through femoral artery. The 5-HT3 selective agonist, 2-methyl-5-hydroxytryptamine (2-Me-5-HT) was administered at 0.1 mg/kg through carotid arteries and transient reduction in heart rate was recorded. The test. compounds were administered through jugular vein at 5 minutes before the administration of 2-Me-5-HT, inhibitory rate of reduction in heart rate by the administration of 2-Me-5-HT was calculated and IC50 value was calculated from the inhibitory rate.

[5] = Micronucleus test
Description: as §1

[6] = tested on: gastric-emptying; test: Gastric-emptying promoting action (semi-solid test meal, fasted rats); type: in vivo, rat; conditions: relative to distilled water group (C/D×100)
Description: The present compounds were evaluated for the gastrointestinal prokinetic action, employing as an index the gastric-emptying promoting action. Fasted rats were orally given the test compound or distilled water. After 60 minutes, 3 ml of a test meal (a semi-solid food) was given into stomach by means of a probe. After 60 minutes, animals were sacrificed and stomach was excised and weighed. After washing out the gastric content, the stomach was again weighed to calculate the gastric content amount. The results were shown in the following table by calculating the gastric emptying rate (C) from the weight of the test meal given (A) and the weight of the test meal retained in the stomach (B), and expressing in terms of the gastric-emptying promoting rate to the gastric-emptying rate of the distilled water-given group(D).
Gastric-emptying rate(C)=(A-B)/A×100
Gastric-emptying promoting rate=C/D×100

[7] = target: T2, 5-HT4 receptors (Rattus norvegicus, UniProt Q62758); test: Relaxation of carbachol-contracted rat oesophageal tunica muscularis mucosae; type: cell-based
T2 construct: from tissue; host or cells: rat oesophageal tunica muscularis mucosae
Description: The agonistic activity of oxazabicyclo derivatives and Mosapride on 5-HT4 receptors was determined by the procedure mentioned in Naunyn-Schmiedeberg's Arch Pharmacol (1991) 343:439-446.
The rat oesophageal tunica muscularis mucosae were suspended in organ both containing Krebs-Henseleit solution aerated with a mixed gas (95% O2, 5% CO2) and contracted with carbachol (1×10^-6 M). After the contraction was stabilized, the cumulative administration of the compounds was performed to determine the relaxation of the rat oesophagus pre-contracted with carbachol. The concentration (ED50) to cause 50% relaxation of the carbachol-induced contraction was measured. The result is expressed in terms of -log ED50 and shown in the following table in which higher numerical value indicates higher activity.

[8] = Reverse mutation test (Ames test)
[9] = target: 5-HT4 receptor (Cavia porcellus, UniProt O70528); test: Increase in contraction height of electrically stimulated longitudinal muscle of isolated guinea pig ileum (LMMP); type: cell-based; set-up: key: +: indicates the increase in the contraction height; -: indicates no effect; conditions: test concentration 10^-7 M
Description: Ileum was excised from guinea pigs to prepare longitudinal muscle samples with approximately 2 cm length. The sample was suspended in Krebs-Henseleit liquid bath supplied with a mixed gas (95% O2, 5% CO2) and subjected to electrical stimulation (1 msec, 0.1 Hz) to record contraction force isometrically. The test compounds were. dissolved in distilled water or DMSO and tested at a concentration of 10^-7 M (but 10^-6 M for Compound 11). The results are shown by the presence or absence of the increase in the contraction height by electrical stimulation before administration of the compound, wherein the symbol "+" indicates the increase in the contraction height, while "-" indicates no effect.
Whether or not the action of the above compounds is that via activation of 5-HT4 receptors was investigated using as 5-HT4 receptor antagonist, SDZ 205-557 (2-methoxy-4-amino-5-chlorobenzoic acid 2-(diethylamino)ethyl ester) described in Naunyn-Schmiedeberg's Arch Pharmacol (1992) 345:387-393. Thus, the investigation as to whether SDZ 205-557 can antagonize the increase in the contraction height of the above compounds using the longitudinal muscle preparation of the isolated guinea pig ileum can reveal that such increase in the contraction height is the action via activation of 5-HT4 receptors.

T2 sequence (Q62758 whole entry): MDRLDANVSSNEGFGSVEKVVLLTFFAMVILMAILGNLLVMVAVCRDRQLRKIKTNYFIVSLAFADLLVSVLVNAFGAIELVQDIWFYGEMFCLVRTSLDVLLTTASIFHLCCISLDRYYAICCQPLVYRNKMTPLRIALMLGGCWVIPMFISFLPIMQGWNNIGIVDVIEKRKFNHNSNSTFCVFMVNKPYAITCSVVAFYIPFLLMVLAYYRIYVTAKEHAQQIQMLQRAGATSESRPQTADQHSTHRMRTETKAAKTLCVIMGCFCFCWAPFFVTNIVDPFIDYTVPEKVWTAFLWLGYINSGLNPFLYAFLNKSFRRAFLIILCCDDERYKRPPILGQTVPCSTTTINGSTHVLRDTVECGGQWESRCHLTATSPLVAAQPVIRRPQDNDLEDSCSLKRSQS
5-HT4 receptor, sequence (O70528 whole entry): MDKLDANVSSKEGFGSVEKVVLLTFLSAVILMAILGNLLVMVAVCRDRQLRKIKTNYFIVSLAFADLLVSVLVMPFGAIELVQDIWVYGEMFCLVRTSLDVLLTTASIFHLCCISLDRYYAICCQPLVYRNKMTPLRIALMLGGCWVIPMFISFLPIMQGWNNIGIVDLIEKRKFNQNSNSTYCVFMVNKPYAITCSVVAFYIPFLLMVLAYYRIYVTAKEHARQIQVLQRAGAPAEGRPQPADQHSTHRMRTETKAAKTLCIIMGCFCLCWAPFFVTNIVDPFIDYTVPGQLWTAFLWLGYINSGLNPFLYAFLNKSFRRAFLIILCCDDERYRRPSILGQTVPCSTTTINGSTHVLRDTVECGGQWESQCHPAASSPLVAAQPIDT

| Compound | MI (Motility Index) ([1]; 0.03 mg/kg iv) [%] | MI (Motility Index) ([1]; 0.1 mg/kg iv) [%] | MI (Motility Index) ([1]; 0.3 mg/kg iv) [%] | toxicological changes [2] | chromosomal aberration test [3] | ED50 [4] [mg/kg] | micronucleus test [5] | Gastric-emptying promoting rate ([6]; 0.03 mg/kg oral) | Gastric-emptying promoting rate ([6]; 0.1 mg/kg oral) | Gastric-emptying promoting rate ([6]; 0.3 mg/kg oral) | EC50 [7] [µM] | reverse mutation test (Ames test) [8] | mutagenicity ([8]; overall from Ames, chromosomal aberration and micronucleus tests) | LMMP: presence or absence of the increase in the contraction height by electrical stimulation [9] | MI (Motility Index) ([1]; 1 mg/kg iv) [%] | Gastric-emptying promoting rate ([6]; 1 mg/kg oral) | Gastric-emptying promoting rate ([6]; 3 mg/kg oral) | EC50 ([7]; ED50 = concentration to cause 50% relaxation of contraction by carbachol (1×10^-6 M), cumulative administration, read-out: Activity (-log ED50) (converted)) [µM] |
| --- | --- | --- | --- | --- | --- | --- | --- | --- | --- | --- | --- | --- | --- | --- | --- | --- | --- | --- |
| CCCCN1[C@@H]2COC[C@H]1C[C@@H](NC(=O)c1nn(C(C)C)c3ccccc13)C2 [Example 5, N-[endo-9-(n-Butyl)-3-oxa-9-azabicyclo[3.3.1]non-7-yl]-1-isopropyl-indazole-3-carboxamide] | 145.8 | 208.2 | 324.9 | no toxicological changes were observed | negative | 0.0427 | negative | 110.7 | 124.2 | 127.5 | 1 | negative | no mutagenicity was observed | + |  |  |  |  |
| CCOc1cc(N)c(Cl)cc1C(=O)NCC1CN(Cc2ccc(F)cc2)CCO1 (stereo not shown) [Mosapride, reference compound] |  |  |  |  |  |  |  |  |  | 103.5 |  |  |  |  | 151.0 | 125.3 | 128.1 | 34.7 |
